Results on seven molecules are retold here after article PMC3954708 (Bioorganic & medicinal chemistry letters, 2013).

The test system of data set [1] is UT-B. The settings on record: cited from earlier work.
For data set [2] the following is noted: administration to mice; cited from earlier work.
The conditions of data set [3]: cited from earlier work.
A short description of data set [4]: microsomal stability with rat liver microsomes and NADPH, LCMS analysis. It counts as in vitro ADME. The settings on record: liver microsomes. (Liver microsomes are vesicles of endoplasmic reticulum, rich in cytochrome P450 enzymes.)
Data set [5] has as its target T1, UT-B (Homo sapiens, UniProt Q13336).
T1 sequence (Q13336 1-389): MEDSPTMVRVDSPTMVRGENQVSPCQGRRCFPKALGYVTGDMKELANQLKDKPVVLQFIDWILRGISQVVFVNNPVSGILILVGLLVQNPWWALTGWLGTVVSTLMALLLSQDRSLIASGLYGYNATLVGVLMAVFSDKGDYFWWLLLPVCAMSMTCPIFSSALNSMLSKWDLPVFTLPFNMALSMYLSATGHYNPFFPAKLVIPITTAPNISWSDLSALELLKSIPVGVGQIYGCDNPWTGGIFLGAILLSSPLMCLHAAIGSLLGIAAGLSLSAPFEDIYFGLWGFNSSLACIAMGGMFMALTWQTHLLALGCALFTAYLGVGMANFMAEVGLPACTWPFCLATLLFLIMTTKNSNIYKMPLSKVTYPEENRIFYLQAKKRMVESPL
Briefly: erythrocyte lysis assay for UT-B inhibition. The data set is classed as cell-based, mouse.

Setting [6] is: IC50 (inhibitory potency, abstract), UT-B inhibition.
The mark [7] stands for this setting: IC50 (UT-B inhibition activity), mouse erythrocyte lysis assay (n = 3), fit to single-site saturation model.

Consider `CCc1ccc(S(=O)(=O)c2nnn3c2nc(NCc2cccs2)c2sccc23)cc1` [Compound 1a], for which the “mechanism of UT-B inhibition” value in the data set on UT-B [1] is given as “competitive mechanism”. Besides, in data set [2], the “effect on urine osmolality” value is on record as “reduced urine osmolality” and the “effect on urine output” value is given as “increased urine output”. Moreover, the “microsomal degradation / hepatic oxidation” value in data set [3] is “underwent rapid oxidation by hepatic enzymes”.

As a reminder, the amount remaining is the share of the starting amount still present when the sample was taken. A lower amount remaining goes with a greater loss. In data set [4], `CC(F)(F)c1ccc(S(=O)(=O)c2nnn3c2nc(NCc2cccs2)c2sccc23)cc1` [Compound 1c] came in with a fraction remaining at 0.5 h of 96%. Besides, in data set [3], the “microsomal degradation / hepatic oxidation” value is “resisted microsomal degradation”. Broadly, the IC50 is the concentration that gives 50% inhibition. Read a high IC50 as weaker potency in that assay. Take `Cc1csc(CNc2nc3c(S(=O)(=O)c4ccc(C(C)(F)F)cc4)nnn3c3ccsc23)c1` [Compound 4a]: at UT-B [5] (setting [6]), the IC50 was ~40 nM.

Take `CC(F)(F)c1ccc(S(=O)(=O)c2nnn3c2nc(NCc2ccsc2)c2sccc23)cc1` [Compound 4b]: the IC50 against UT-B [5] (setting [6]) was ~40 nM. In the case of `CC(F)(F)c1ccc(S(=O)(=O)c2nnn3c2nc(NCc2ccccc2)c2sccc23)cc1` [Compound 4d], the concentration for half-maximal inhibition (IC50) against UT-B [5] (setting [7]) was > 800 nM. `CC(F)(F)c1ccc(S(=O)(=O)c2nnn3c2nc(NCC2CC2)c2sccc23)cc1` [Compound 4e]: at UT-B [5] (setting [7]), the IC50 was > 800 nM.

As for `CC(F)(F)c1ccc(S(=O)(=O)c2nnn3c2nc(NCC2CCC2)c2sccc23)cc1` [Compound 4f], the IC50 at UT-B [5] (setting [7]) is > 800 nM.
